Assays:
Hem12p = target: T1, Hem12p (Saccharomyces cerevisiae, UniProt P32347); experiment: fluorescent labelling with eosin-GSH, eosin absorbance at […] nm; format: binding; details: covalent; labelled compound; excess DiEGSSG
T1 construct: gene HEM12; recombinant, codon-optimised synthetic DNA, C-terminal poly-His tag, E. coli, Ni-Sepharose (Abyntek Biopharma)
T1 sequence (P32347 1-362): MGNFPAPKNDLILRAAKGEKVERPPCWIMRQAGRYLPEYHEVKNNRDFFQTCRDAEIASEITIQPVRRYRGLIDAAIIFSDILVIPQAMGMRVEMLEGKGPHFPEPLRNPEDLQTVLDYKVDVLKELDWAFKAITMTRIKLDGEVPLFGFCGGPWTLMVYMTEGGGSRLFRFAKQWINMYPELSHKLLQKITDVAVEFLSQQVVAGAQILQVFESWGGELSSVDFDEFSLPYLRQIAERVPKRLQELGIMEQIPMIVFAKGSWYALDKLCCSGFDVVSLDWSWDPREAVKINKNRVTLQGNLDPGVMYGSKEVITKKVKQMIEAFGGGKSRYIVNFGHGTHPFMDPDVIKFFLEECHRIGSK

Tkl1p = target: T2, Tkl1p (Saccharomyces cerevisiae, UniProt P23254); experiment: as above; format: binding; details: covalent; labelled compound; excess DiEGSSG
T2 construct: gene TKL1; recombinant, codon-optimised synthetic DNA, C-terminal poly-His tag, E. coli, Ni-Sepharose (Abyntek Biopharma); homodimer
T2 sequence (P23254 1-680): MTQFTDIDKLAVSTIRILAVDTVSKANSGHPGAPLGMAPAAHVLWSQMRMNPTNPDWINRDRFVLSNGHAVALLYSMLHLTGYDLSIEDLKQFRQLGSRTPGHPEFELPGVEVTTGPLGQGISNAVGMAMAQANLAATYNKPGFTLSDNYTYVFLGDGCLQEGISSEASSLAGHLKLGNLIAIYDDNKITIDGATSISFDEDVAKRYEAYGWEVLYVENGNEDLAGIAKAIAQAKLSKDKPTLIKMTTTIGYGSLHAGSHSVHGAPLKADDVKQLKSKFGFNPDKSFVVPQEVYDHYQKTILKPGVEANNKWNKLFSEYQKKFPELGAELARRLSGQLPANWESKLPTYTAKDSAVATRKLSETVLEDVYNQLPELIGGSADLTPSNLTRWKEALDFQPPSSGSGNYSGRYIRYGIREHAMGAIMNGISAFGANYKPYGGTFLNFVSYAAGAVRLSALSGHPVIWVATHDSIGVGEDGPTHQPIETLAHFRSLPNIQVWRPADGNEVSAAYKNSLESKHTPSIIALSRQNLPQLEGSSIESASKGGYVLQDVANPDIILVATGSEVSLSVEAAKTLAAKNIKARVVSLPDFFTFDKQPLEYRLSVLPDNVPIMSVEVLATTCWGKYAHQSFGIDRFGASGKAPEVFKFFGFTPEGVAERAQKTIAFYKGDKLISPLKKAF

`O=C(O)CNC(=O)[C@H](CSSC[C@H](NC(=O)CC[C@H](NC(=S)Nc1ccc(-c2c3cc(Br)c(=O)c(Br)c-3oc3c(Br)c(O)c(Br)cc23)c(C(=O)O)c1)C(=O)O)C(=O)NCC(=O)O)NC(=O)CC[C@H](NC(=S)Nc1ccc(-c2c3cc(Br)c(=O)c(Br)c-3oc3c(Br)c(O)c(Br)cc23)c(C(=O)O)c1)C(=O)O` [DiEGSSG, dieosinediglutathione] was tested, and the “moles of fluorescent glutathione per mole protein” value (Hem12p) was ~ 1.5 mol/mol and the “moles of fluorescent moiety per mole protein” value (Tkl1p) was ~ 0.35 mol/mol.
